From ChEMBL document CHEMBL2417463, “Synthesis and identification of new flavonoids targeting liver X receptor β involved pathway as potential facilitators of Aβ clearance with reduced lipid accumulation” (J Med Chem, 2013)
The source made the active and inactive calls. No cut-off for these calls is given here.

Assays:
[1] = target: T1, Oxysterols receptor LXR-beta (Mus musculus) (UniProt Q60644); experiment: Agonist activity at LXRbeta in mouse RAW264.7 cells assessed as induction of ABCA1 promoter activation after 24 hrs by Dual-Glo luciferase reporter gene assay; assay type: cell-based
T1 sequence (whole entry): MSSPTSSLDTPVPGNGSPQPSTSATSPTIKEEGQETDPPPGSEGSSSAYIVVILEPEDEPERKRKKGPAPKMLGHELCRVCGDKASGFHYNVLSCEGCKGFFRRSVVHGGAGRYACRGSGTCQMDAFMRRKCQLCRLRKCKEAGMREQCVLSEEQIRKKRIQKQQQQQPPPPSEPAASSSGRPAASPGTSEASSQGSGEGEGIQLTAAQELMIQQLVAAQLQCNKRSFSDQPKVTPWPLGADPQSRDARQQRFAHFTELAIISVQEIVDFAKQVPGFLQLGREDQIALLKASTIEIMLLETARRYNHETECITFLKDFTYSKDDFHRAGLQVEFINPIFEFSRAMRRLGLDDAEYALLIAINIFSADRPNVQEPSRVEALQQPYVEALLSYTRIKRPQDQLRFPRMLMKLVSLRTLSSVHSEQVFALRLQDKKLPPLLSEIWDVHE

[2] = target: T1, Oxysterols receptor LXR-beta (Mus musculus); experiment: Agonist activity at LXRbeta in mouse RAW264.7 cells assessed as upregulation of ABCA1 protein expression at 1 uM after 18 to 48 hrs by Western blot analysis; assay type: cell-based
Mus musculus [3] = experiment: Antialzheimer activity in double transgenic B6C3 mouse overexpressing APP swedish mutant and PSEN1dE9 assessed as upregulation of ABCA1 protein expression in brain at 10 mg/kg, ip administered 3 times per week measured after 6 weeks by Western blot analysis relative to vehicle-treated control; assay type: functional; conditions: route intraperitoneal
Mus musculus [4] = experiment: (§1) Antialzheimer activity in double transgenic B6C3 mouse overexpressing APP swedish mutant and PSEN1dE9 assessed as reduction of amyloid beta42 plaque number in hippocampus at 10 mg/kg, ip administered 3 times per week measured after 6 weeks by OC staining-based fluorescence microscopic analysis relative to vehicle-treated control; assay type: functional; set-up: scale not given: the % may be the effect or the level left; conditions: route intraperitoneal
Mus musculus [5] = experiment: Antialzheimer activity in double transgenic B6C3 mouse overexpressing APP swedish mutant and PSEN1dE9 assessed as reduction of insoluble amyloid beta42 level at 10 mg/kg, ip administered 3 times per week measured after 6 weeks by ELISA relative to vehicle-treated control; assay type: functional; set-up: scale not given: the % may be the effect or the level left; conditions: route intraperitoneal
[6] = target: T1, Oxysterols receptor LXR-beta (Mus musculus); experiment: Agonist activity at LXRbeta in mouse BV2 cells assessed as upregulation of apoE protein expression at 10 uM after 48 hrs by Western blot analysis relative to vehicle-treated control; assay type: cell-based; conditions: BV-2
HepG2 = experiment: Induction of intracellular triglyceride accumulation in human HepG2 cells at 1 uM after 4 days relative to vehicle-treated control; assay type: cell-based; conditions: hepg2, 96 h
[7] = target: T2, Oxysterols receptor LXR-beta (Homo sapiens) (UniProt P55055); experiment: Agonist activity at human LXRbeta transfected in HEK293 cells at 1 uM after 24 hrs by luciferase reporter gene assay relative to vehicle-treated control; assay type: cell-based
T2 sequence (whole entry): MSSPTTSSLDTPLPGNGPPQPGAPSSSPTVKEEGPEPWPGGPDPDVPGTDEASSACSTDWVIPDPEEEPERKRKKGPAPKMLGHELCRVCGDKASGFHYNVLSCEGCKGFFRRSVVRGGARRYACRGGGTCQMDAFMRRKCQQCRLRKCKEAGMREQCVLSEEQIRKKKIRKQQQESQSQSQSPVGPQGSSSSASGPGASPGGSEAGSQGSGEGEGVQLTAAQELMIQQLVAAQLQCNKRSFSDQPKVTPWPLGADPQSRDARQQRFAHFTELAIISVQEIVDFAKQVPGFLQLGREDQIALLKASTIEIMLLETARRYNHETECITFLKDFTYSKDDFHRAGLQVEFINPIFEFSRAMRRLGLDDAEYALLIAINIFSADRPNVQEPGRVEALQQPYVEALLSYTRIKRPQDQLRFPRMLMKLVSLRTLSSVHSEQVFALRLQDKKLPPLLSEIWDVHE

HEK293 = experiment: Cytotoxicity against HEK293 cells assessed as inhibition of cell viability at 50 uM after 48 hrs by SRB assay relative to vehicle-treated control; assay type: cell-based; conditions: human, hek293, 48 h
Mus musculus [8] = experiment: as §1, with “load” for “number”; assay type: functional; set-up: scale not given: the % may be the effect or the level left; conditions: route intraperitoneal
Mus musculus [9] = experiment: Antialzheimer activity in double transgenic B6C3 mouse overexpressing APP swedish mutant and PSEN1dE9 assessed as upregulation of apoE protein expression in brain at 10 mg/kg, ip administered 3 times per week measured after 6 weeks by Western blot analysis relative to vehicle-treated control; assay type: functional; conditions: route intraperitoneal
[10] = target: T1, Oxysterols receptor LXR-beta (Mus musculus); experiment: Agonist activity at LXRbeta in mouse BV2 cells assessed as upregulation of ABCA1 protein expression after 12 to 48 hrs by Western blot analysis; assay type: cell-based; conditions: BV-2
[11] = target: T3, Oxysterols receptor LXR-alpha (Homo sapiens) (UniProt Q13133); experiment: Agonist activity at human LXRalpha transfected in HEK293 cells at 1 uM after 24 hrs by luciferase reporter gene assay relative to vehicle-treated control; assay type: cell-based
T3 sequence (whole entry): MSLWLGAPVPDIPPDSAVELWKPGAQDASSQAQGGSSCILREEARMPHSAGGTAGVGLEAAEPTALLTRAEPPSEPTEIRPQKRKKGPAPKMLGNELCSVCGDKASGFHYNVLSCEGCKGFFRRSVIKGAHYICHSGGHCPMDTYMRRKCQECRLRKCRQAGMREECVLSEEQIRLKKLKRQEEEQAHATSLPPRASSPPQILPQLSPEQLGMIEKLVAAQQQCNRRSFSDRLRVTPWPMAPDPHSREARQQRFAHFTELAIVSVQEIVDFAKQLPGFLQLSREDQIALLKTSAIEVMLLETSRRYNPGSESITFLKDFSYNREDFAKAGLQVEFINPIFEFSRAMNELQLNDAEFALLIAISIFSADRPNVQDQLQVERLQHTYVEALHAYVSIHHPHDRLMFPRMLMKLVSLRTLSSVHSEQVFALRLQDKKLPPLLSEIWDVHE

[12] = target: T2, Oxysterols receptor LXR-beta (Homo sapiens); experiment: Agonist activity at human LXRbeta transfected in HEK293 cells at 0.1 uM after 24 hrs by luciferase reporter gene assay relative to vehicle-treated control; assay type: cell-based
Mus musculus [13] = experiment: Antialzheimer activity in double transgenic B6C3 mouse overexpressing APP swedish mutant and PSEN1dE9 assessed as reduction of soluble amyloid beta42 level at 10 mg/kg, ip administered 3 times per week measured after 6 weeks by ELISA relative to vehicle-treated control; assay type: functional; set-up: scale not given: the % may be the effect or the level left; conditions: route intraperitoneal
RAW264.7 = experiment: Cytotoxicity against mouse RAW264.7 cells assessed as inhibition of cell viability at 50 uM after 48 hrs by SRB assay relative to vehicle-treated control; assay type: cell-based; conditions: raw264.7, 48 h
[14] = target: T1, Oxysterols receptor LXR-beta (Mus musculus); experiment: Agonist activity at LXRbeta in mouse RAW264.7 cells assessed as induction of ABCA1 promoter activation at 1 uM after 24 hrs by Dual-Glo luciferase reporter gene assay relative to vehicle-treated control; assay type: cell-based
Mus musculus [15] = experiment: as §1, with “load” for “number”, “cortex” for “hippocampus”; assay type: functional; set-up: scale not given: the % may be the effect or the level left; conditions: route intraperitoneal
Mus musculus [16] = experiment: as §1, with “cortex” for “hippocampus”; assay type: functional; set-up: scale not given: the % may be the effect or the level left; conditions: route intraperitoneal

- Activity [1]: Dose-dependent effect
- Activity [2]: Active
- fold change (FC) [6]: 2.7
- Activity (HepG2): -0.3%
- fold change (FC) [7]: 1.79
- Activity [10]: Dose-dependent effect
- fold change (FC) [11]: 1.19
- fold change (FC) [12]: 1.07
- fold change (FC) [14]: 2.09
SMILES: Cc1ccc(/C=C/C(=O)c2ccc(N)cc2O)o1
- fold change (FC) (Mus musculus [3]): 2.3
- Activity (Mus musculus [4]): 20%
- Activity (Mus musculus [5]): 26%
- Activity (HEK293): Non-toxic
- Activity (Mus musculus [8]): 28%
- fold change (FC) (Mus musculus [9]): 1.6
- Activity (Mus musculus [13]): 31%
- Activity (RAW264.7): Non-toxic
- Activity (Mus musculus [15]): 30%
- Activity (Mus musculus [16]): 30%
